Converted amounts (≈) assume the structure as drawn.
How the values were obtained:
[1] = system: PAS resistant Mtb: FolC mutants; type: cell-based, Mycobacterium tuberculosis
[2] = system: Multidrug resistant Mtb strains; test: microbe, parasite or virus in culture; type: cell-based; settings: Mycobacterium tuberculosis
[3] = system: Extensively drug resistant Mtb strains; test: microbe, parasite or virus in culture; type: cell-based; settings: for MIC: Mycobacterium tuberculosis

Question: Which MIC [1] does the source give for `Nc1cc(O)c(C(=O)O)cc1F` [Compound 11, 4-Amino-5-fluoro-2-hydroxybenzoic acid] here?
Answer: ≥50 µM

Question: What about the MIC [2] of the same molecule?
Answer: 6.3 to 50 µM (≈ 1.08 to 8.56 µg/mL)

Question: What about the “activity against XDR and PAS resistant strains” value ([3]; most XDR and PAS resistant strains) of the same molecule?
Answer: largely inactive

Question: What does the source list for `NNC(=O)c1ccncc1` [Isoniazid]?
Answer: MIC [1]: 0.3 to 0.4 µM; MIC [2]: 0.4 to 19 µM (≈ 0.0549 to 2.61 µg/mL); MIC [3]: 6.3 to 50 µM (≈ 0.864 to 6.86 µg/mL)

Question: With `CC(=O)NC[C@H]1CN(c2ccc(N3CCOCC3)c(F)c2)C(=O)O1` [Linezolid] as the molecule, how does the MIC [2] read?
Answer: 0.8 to 1.4 µM (≈ 0.27 to 0.472 µg/mL)

Question: And the MIC [3]?
Answer: 0.9 to 50 µM (≈ 0.304 to 16.9 µg/mL)

Question: `Nc1ccc(C(=O)O)c(O)c1` [PAS, para-Aminosalicylic acid] was tested. Which MIC [1] did it give?
Answer: 12.5 to 50 µM

Question: And the MIC [2]?
Answer: 0.2 to 3.1 µM (≈ 0.0306 to 0.475 µg/mL)

— paper PMC8941652 (European journal of medicinal chemistry, 2022)
